From patent US6716582B2 (priority 2000, dated 2004)

Assays:
[1] = test system: uhpT-luxCDABE gene fusion (strain DPD3228); test: verification of uhpT-lux upregulation by limonene; assay type: cell-based, E. coli; details: late response, maximal at highest concentration, detected at 40% or 20% of saturation
Experimental: E. coli strain DPD3228 is identical to lux-a.pk034.b9 the strain containing the uhpT-luxCDABE gene fusion. This strain was grown overnight at 37° C. in LB medium containing 100 μg/ml ampicillin and diluted the following day into LB medium and grown to log phase at 37° C. 20 μl aliquots of this culture were added to 80 μl of LB medium saturated with limonene, to 80 μl of a series of two fold dilutions into LB medium of LB saturated with limonene, and to 80 μl of LB medium. Light production was measured in a Luminoskan Ascent (Labsystems) microplate luminometer at 37° C. […] Similar to the initial LuxArray observations, a late response to the presence of limonene was observed. This response was maximal at the highest concentration of limonene tested, but was also detected when limonene was present at 40% or 20% of saturating amounts in LB medium.

[2] = test system: LuxArray 1.04 luxCDABE gene fusions; test: LuxArray 1.04 limonene stress in liquid culture; assay type: cell-based, E. coli; details: for upregulation of gene fusion: 80% saturated limonene
Experimental: Microplates from −80° C. containing the LuxArray 1.04 E. coli strains were thawed and used to inoculate 100 μl LB medium supplemented with 100 μg/ml ampicillin in Costar#3595 flat bottomed 96-well microplates. Following overnight growth at 37° C., the plates were visually examined and any wells with little or no turbidity were recorded. Then these cultures were diluted by transfer of 15 μl to 135 μl LB medium in Costar #3595, flat bottom 96-well microplates and were moderately swirl shaken on an IKA Schuttler MTS 4 shaker at setting 400 for two hrs at 37° C. in a humidified box. Twenty μl of each these actively growing cultures were transferred to the corresponding well in sets of three microplates, one containing 80 μl of LB medium, another containing 80 μl of LB medium saturated with limonene at room temperature, and the third containing 40 μl of LB medium saturated with limonene and 40 μl of LB medium. An initial (zero time) reading was taken using an MLX microplate luminometer (Dynex) pre-warmed to 37° C. Then the plates were placed at 37° C. without shaking. Additional bioluminescent measurements were taken at 45, 90, and 135 minutes. To limit the number of microplates handled each day, LuxArray 1.04 microplates 1 to 5, microplates 6 to 10, microplates 11 to 15, and microplates […] were used on each of four different days.
The data were normalized to correct for growth inhibition caused by limonene on the basis of each individual day that data was collected. The bioluminescence (RLU) of each individual culture for each day of experimentation under each of the three conditions, were added to determine the daily array total RLU. These were used to find a daily normalization factor (DNF) as follows:
DNF=Daily total array signal (time zero, LB control)/Daily total array signal (time x, condition y)
Each measurement from the corresponding day, time point, and condition was multiplied by DNF to yield a normalized signal. The data from wells that were scored to have little or no growth were not used in further analysis. The normalized data were analyzed with GeneSpring (Silicon Genetics) software, which averaged the signal from each of the duplicate cultures for each reporter gene fusion.
Thus, patterns of gene expression from the 80% saturated limonene in LB medium were further examined. […] These lists were examined and gene fusions with very low normalized RLU values (<0.012 RLU) at all conditions were eliminated. […] The designation of “>2×” is given for upregulation while “*” is listed if the expression was less than 2 fold increased. At 45 minutes, the expression of fourteen gene fusions was increased; none of these was increased 3 fold or higher. At 90 minutes, 37 gene fusions were induced; these included all but one of the gene fusions observed at 45 minutes. […] These were fusions of the luxCDABE reporter to the promoter regions of uhpT (3.8×), nirB (3.7×) and narK (3.6×). At 135 minutes, 39 gene fusions were induced, which included 13 fusions not observed at 45 or 90 minutes.

## C=C(C)[C@H]1CC=C(C)CC1 [limonene]
[1]
  upregulation of bioluminescence: upregulation of bioluminescence from this strain by limonene was confirmed
[2]; katG-lux, 135 minutes
  upregulation of gene fusion: 4.1 ×
[2]; narK-lux, 90 minutes
  upregulation of gene fusion: 3.6 ×
[2]; nirB-lux, 90 minutes
  upregulation of gene fusion: 3.7 ×
[2]; nirB-lux, 135 minutes
  upregulation of gene fusion: 4.1 ×
[2]; uhpT-lux, 90 minutes
  upregulation of gene fusion: 3.8 ×
[2]; uhpT-lux, 135 minutes
  upregulation of gene fusion: 7.7 ×
[2]; whole LuxArray 1.04, 40% saturated limonene in LB medium
  upregulation of gene expression: little to no upregulation
